Results on 2 compounds are retold here after patent publication US20240391862A1, “(1,4,5-TRISUBSTITUTED-1H-PYRAZOL-3-YL)OXY-2-ALKOXY ALKYL ACIDS AND THEIR DERIVATIVES, THEIR SALTS AND THEIR USE AS HERBICIDAL AGENTS” (Bayer AKtiengesellschaft, priority 2021, published 2024).

Data set [1] concerns SETVI. Description: Post-emergence herbicidal effect, greenhouse pot test. Format: in vivo, Setaria viridis. As to conditions: 320 g/ha. A digest of the protocol: (§1)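 Weeds sown in sandy loam, greenhouse-grown 2–3 weeks, then sprayed at one-leaf stage with WP or EC formulations in water plus 0.5% additive at 600 l/ha. Rates 20 to 320 g/ha. Visual rating after about 3 weeks versus untreated controls (100% = plants dead, 0% = like control).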

Data set [2] deals with TRZAS. Description: Post-emergence herbicidal effect and crop plant compatibility, greenhouse pot test. The format is in vivo, Triticum aestivum. As to conditions: for Post-emergence effect against TRZAS: visual rating about 3 weeks after treatment, crop plant. In a few lines: (§2)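 Greenhouse pot test: weeds and crops sown in sandy loam, sprayed post-emergence at one-leaf stage (2–3 weeks after sowing) with WP or EC formulations plus 0.5% additive at 600 l/ha water, rates 20–320 g/ha. Visual rating about 3 weeks later versus untreated controls (100% = dead, 0% = as control).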

Data set [3] relates to ECHCG. Briefly: Post-emergence herbicidal effect, greenhouse pot test. Format: in vivo, Echinochloa crus-galli. In a few lines:
as §1

For data set [4], the system named is PHBPU. The description is as above. The format is in vivo, Ipomoea purpurea. As to conditions: 320 g/ha. In a few lines: as §1
Data set [5] concerns ZEAMX. Description: Post-emergence herbicidal effect and crop plant compatibility, greenhouse pot test. The format is in vivo, Zea mays. As to conditions: 20 g/ha, one-leaf stage, rated visually after about 3 weeks vs untreated controls. In a few lines:
as §2

Data set [6] deals with GLXMA. The data set is described as above. The format is in vivo, Glycine max. As to conditions: 20 g/ha, visual rating about 3 weeks after treatment, crop plant. The source says:
(§3) • ALOMY: Alopecurus myosuroides SETVI: Setaria viridis • AVEFA: Avena fatua POLCO: Fallopia convolvulus • AMARE: Amaranthus retroflexus ECHCG: Echinochloa crus-galli • LOLRJ: Lolium rigidum STEME: Stellaria media • VERPE: Veronica persica MATIN: Tripleurospermum inodorum • DIGSA: Digitaria sanguinalis ABUTH: Abutylon threophrasti • TRZAS: Triticum aestivum VIOTR: Viola tricolor • BRSNW: Brassica napus ZEAMX: Zea mays • PHBPU: Ipomoea purpurea GLXMA: Glycine max • ORYSA: Oryza sativa HORMU: Hordeum murinum
Seeds of monocotyledonous and dicotyledonous weeds and crop plants are placed in sandy loam in plastic or organic planting pots, covered with soil and cultivated in a greenhouse under controlled growth conditions. 2 to 3 weeks after sowing, the trial plants are treated at the one-leaf stage. The compounds of the invention, formulated in the form of wettable powders (WP) or as emulsion concentrates (EC), are then sprayed onto the green parts of the plants as aqueous suspension or emulsion with addition of 0.5% additive at a water application rate of 600 l/ha (converted). After the test plants have been kept in the greenhouse under optimum growth conditions for about 3 weeks, the activity of the preparations is rated visually in comparison to untreated controls. For example, 100% activity=the plants have died, 0% activity=like control plants.
Tables 20a to 38c below show the effects/crop compatibilities of selected compounds of the general formula (I) on various harmful plants at an application rate corresponding to 20 to 320 g/ha, which were obtained by the trial procedure specified above.

In another data set the test system is ALOMY. Description: Post-emergence herbicidal effect, greenhouse pot test. Format: in vivo, Alopecurus myosuroides. As to conditions: Alopecurus myosuroides, 504 h, visual rating about 3 weeks after treatment, read-out: Post-emergence effect against ALOMY. In a few lines: as §1
In data set [7] the test system is POLCO. Description: Pre-emergence herbicidal effect, greenhouse pot test. Format: in vivo, Fallopia convolvulus. As to conditions: Fallopia convolvulus, 504 h, 320 g/ha, scored visually after about 3 weeks vs untreated controls, read-out: Pre-emergence effect at 320 g/ha against POLCO in %.
Excerpt: (§4) Seeds of monocotyledonous and dicotyledonous weed plants and crop plants are placed in plastic or organic planting pots and covered with soil. The compounds of the invention, formulated in the form of wettable powders (WP) or as emulsion concentrates (EC), are then applied to the surface of the covering soil as aqueous suspension or emulsion with addition of 0.5% additive at a water application rate equivalent to 600 l/ha. After the treatment, the pots are placed in a greenhouse and kept under good growth conditions for the trial plants. After about 3 weeks, the effect of the preparations is scored visually in comparison with untreated controls as percentages. For example, 100% activity=the plants have died, 0% activity=like control plants.
(§5) Tables 1a to 19c below show the effects/crop compatibilities of selected compounds of the general formula (I) on various harmful plants at an application rate corresponding to 20 to 320 g/ha, which were obtained by the trial procedure specified above.
as §3

Data set [8] has as its system TRZAS. Description: Pre-emergence herbicidal effect and crop plant compatibility, greenhouse pot test. As to conditions: 80 g/ha, scored visually after about 3 weeks vs untreated controls. The format is in vivo, Triticum aestivum.
Excerpt: as §4, §5, §3

Data set [9] concerns SETVI. Description: Pre-emergence herbicidal effect, greenhouse pot test. The format is in vivo, Setaria viridis. As to conditions: Setaria viridis, 504 h, 320 g/ha, scored visually after about 3 weeks vs untreated controls, read-out: Pre-emergence effect at 320 g/ha against SETVI in %.
Excerpt: as §4, §5, §3

The test system of data set [10] is POLCO. Description: Post-emergence herbicidal effect, greenhouse pot test. Format: in vivo, Fallopia convolvulus. As to conditions: Fallopia convolvulus, 504 h, read-out: Post-emergence effect against POLCO in %. In a few lines:
as §1

A further data set has as its system AMARE. Description: Pre-emergence herbicidal effect, greenhouse pot test. Format: in vivo, Amaranthus retroflexus. As to conditions: scored visually after about 3 weeks vs untreated controls.
Excerpt: as §4, §5, §3

In the next data set the test system is AVEFA. The data set is described as above. The format is in vivo, Avena fatua. As to conditions: 320 g/ha, scored visually after about 3 weeks vs untreated controls.
Excerpt: as §4, §5, §3

Data set [11] deals with MATIN. The data set is described as above. Format: in vivo, Tripleurospermum inodorum. As to conditions: Tripleurospermum inodorum, 504 h, 320 g/ha, scored visually after about 3 weeks vs untreated controls, read-out: Pre-emergence effect at 320 g/ha against MATIN in %.
Excerpt: as §4, §5, §3

The test system of data set [12] is PHBPU. The data set is described as above. Format: in vivo, Ipomoea purpurea. As to conditions: 320 g/ha, scored visually after about 3 weeks vs untreated controls.
Excerpt: as §4, §5, §3

Data set [13] deals with LOLRI. Briefly: Post-emergence herbicidal effect, greenhouse pot test. As to conditions: Lolium rigidum, 504 h, read-out: Post-emergence effect against LOLRI in %. Format: in vivo, Lolium rigidum. In a few lines: as §1
Data set [14] has as its system ZEAMX. Description: Pre-emergence herbicidal effect and crop plant compatibility, greenhouse pot test. As to conditions: 80 g/ha, scored visually after about 3 weeks vs untreated controls. Format: in vivo, Zea mays.
Excerpt: as §4, §5, §3

The test system of data set [15] is MATIN. Briefly: Post-emergence herbicidal effect, greenhouse pot test. The format is in vivo, Tripleurospermum inodorum. As to conditions: Tripleurospermum inodorum, 504 h, 320 g/ha, read-out: Post-emergence effect against MATIN in %. A digest of the protocol:
as §1

Data set [16] has as its system DIGSA. Description: Pre-emergence herbicidal effect, greenhouse pot test. The format is in vivo, Digitaria sanguinalis. As to conditions: 320 g/ha, scored visually after about 3 weeks vs untreated controls.
Excerpt: as §4, §5, §3

Data set [17] deals with GLXMA. Briefly: Pre-emergence herbicidal effect and crop plant compatibility, greenhouse pot test. The format is in vivo, Glycine max. As to conditions: 80 g/ha, scored visually after about 3 weeks vs untreated controls.
Excerpt: as §4, §5, §3

Data set [18] relates to ECHCG. Briefly: Pre-emergence herbicidal effect, greenhouse pot test. The format is in vivo, Echinochloa crus-galli. As to conditions: Echinochloa crus-galli, 504 h, 320 g/ha, scored visually after about 3 weeks vs untreated controls, read-out: Pre-emergence effect at 320 g/ha against ECHCG in %.
Excerpt: as §4, §5, §3

Data set [19] deals with DIGSA. Description: Post-emergence herbicidal effect, greenhouse pot test. Format: in vivo, Digitaria sanguinalis. As to conditions: Digitaria sanguinalis, 504 h, visual rating about 3 weeks after treatment, read-out: Post-emergence effect against DIGSA. In a few lines:
as §1

The test system of data set [20] is LOLRI. Description: Pre-emergence herbicidal effect, greenhouse pot test. The format is in vivo, Lolium rigidum. As to conditions: 320 g/ha, scored visually after about 3 weeks vs untreated controls.
Excerpt: as §4, §5, §3

For a further data set, the system named is VERPE. Description: Post-emergence herbicidal effect, greenhouse pot test. Format: in vivo, Veronica persica. As to conditions: Veronica persica, 504 h, read-out: Post-emergence effect against VERPE in %. A digest of the protocol:
as §1

In the case of `COC(Oc1nn(-c2cccc(C)c2F)c(-c2ccnc(F)c2)c1Br)C(=O)O` (stereo not shown) [Example I-92], in the data set with SETVI [1], the “Post-emergence effect against SETVI in %” value was found to be 80%. Moreover, in the data set with TRZAS [2] (20 g/ha, one-leaf stage, rated visually after about 3 weeks vs untreated controls), the “Post-emergence effect at 20 g/ha against TRZAS in %” value is listed as 0%. The figures for the “Post-emergence effect against TRZAS” value in the data set with TRZAS [2] (80 g/ha) and in the data set on TRZAS [2] (320 g/ha) were 10% and 20%, respectively. Moreover, the results for the “Post-emergence effect against ECHCG in %” value with ECHCG [3] (80 g/ha) and in the data set on ECHCG [3] (320 g/ha) were 80% and 90%, respectively. Further, the “Post-emergence effect against PHBPU in %” value in the data set with PHBPU [4] was determined as 80%. In addition, the “Post-emergence effect at 20 g/ha against ZEAMX in %” value in the data set on ZEAMX [5] turned out to be 20%. Further, the “Post-emergence effect against GLXMA” value in the data set with GLXMA [6] amounted to 10%.

On to `COC(=O)C(OC)Oc1nn(-c2ncccc2F)c(-c2ccc(F)cc2F)c1Br` (stereo not shown) [Example I-07], for which the pest or weed control at 80 g/ha turned out to be 90% with ALOMY (80 g/ha); 80% with POLCO [10] (80 g/ha); 80% in the data set on LOLRI [13] (80 g/ha); 80% in the data set with ECHCG [3] (Echinochloa crus-galli, 504 h, 80 g/ha, read-out: Post-emergence effect against ECHCG in %); 80% in the data set on DIGSA [19] (80 g/ha); 80% in the data set on VERPE (80 g/ha). Also, the pest or weed control at 320 g/ha came out at 90% in the data set with ALOMY (320 g/ha); 80% in the data set on POLCO [7]; 100% with SETVI [9]; 90% in the data set with POLCO [10] (320 g/ha); 80% with SETVI [1] (Setaria viridis, 504 h, read-out: Post-emergence effect against SETVI in %); 90% in the data set with AMARE (Amaranthus retroflexus, 504 h, 320 g/ha, read-out: Pre-emergence effect at 320 g/ha against AMARE in %). For the same compound, the pest or weed control at 320 g/ha in the data set with MATIN [11] was 90%; in the data set on LOLRI [13] (320 g/ha) it was 80%; in the data set with MATIN [15], 80%; in the data set with ECHCG [3] (Echinochloa crus-galli, 504 h, 320 g/ha, read-out: Post-emergence effect against ECHCG in %), 80%; in the data set with PHBPU [4] (Ipomoea purpurea, 504 h, read-out: Post-emergence effect against PHBPU in %), 80%; in the data set with ECHCG [18] it was 90%. The pest or weed control at 320 g/ha is 90% in the data set on DIGSA [19] (320 g/ha) and 80% with VERPE (320 g/ha). Besides, the “Pre-emergence effect at 80 g/ha against TRZAS in %” value in the data set with TRZAS [8] was 20%. The “Pre-emergence effect at 80 g/ha against AMARE in %” value in the data set with AMARE (80 g/ha) was found to be 80%. Moreover, the “Pre-emergence effect at 320 g/ha against AVEFA in %” value in the data set with AVEFA was found to be 80%. In addition, the “Pre-emergence effect at 320 g/ha against PHBPU in %” value in the data set on PHBPU [12] stood at 90%. The “Pre-emergence effect at 80 g/ha against ZEAMX in %” value in the data set on ZEAMX [14] was 10%. Moreover, in the data set with DIGSA [16], the “Pre-emergence effect at 320 g/ha against DIGSA in %” value is on record as 90%. For the same compound, the “Pre-emergence effect at 80 g/ha against GLXMA in %” value with GLXMA [17] came out at 10%. The “Pre-emergence effect at 320 g/ha against LOLRI in %” value in the data set with LOLRI [20] is 90%.
